Experimental data reported in US20120289577A1, “COMPOSITION FOR TREATING OR PREVENTING HEARING LOSS COMPRISING NAPHTHOQUINONE-BASED COMPOUNDS” (KT&G LIFE SCIENCES CORPORATION, priority 2009, published 2012).

How the values were obtained:
HSP60 [1] = test: Release amounts of HSP60 in mice by ELISA; assay type: in vivo
Protocol: (§1) It is generally known that HSP60 in mitochondria is released outside of the cells to bind to TLR2 or TLR4, thereby inducing strong inflammation. Accordingly, the release amounts of HSP60 in mice and HEI-OC1 cells were measured by the ELISA method.

[2] = system: outer and inner hair cells of Corti's organ explants; test: Explants of the Corti's organ, shape and arrangement of hair cells; assay type: cell-based
HSP60 [3] = test: Location variation of HSP60 by cell staining; assay type: cell-based
Source text: Also, location variation of HSP60 was identified by cell staining.

HMGB1 [4] = test: Extracellular release of HMGB1 by ELISA; assay type: cell-based
Source text: HMGB1 is, together with HSP60, known as an important mediator for the activation of TLRs and the resulting inflammation. Accordingly, the extracellular release of HMGB1 was identified by the ELISA method.

[5] = system: TNF-α, IL-6, HSP60, TLR2 and TLR4 expression in HEI-OC1 cells; test: Expression of inflammation mediators by the PCR method; assay type: cell-based
HSP60 [6] = test: Release amounts of HSP60 in HEI-OC1 cells by ELISA; assay type: cell-based
Protocol: as §1

6-week-old C57BL/6 mice = assay type: in vivo; conditions: β-lapachone (10, 20 and 40 mg/kg/day) and cisplatin for 4 days, p<0.05
Protocol: 6-week-old C57BL/6 mice were bred in an axenic (germfree) animal facility maintaining constant temperature (22 to 26° C.) and humidity (55 to 60%).
The comparison of the ABR thresholds between groups was conducted by one-way analysis of variance (ANOVA) and P value of 0.05 or less was regarded as being significant.

[7] = system: HEI-OC1 auditory hair cell line; assay type: cell-based; conditions: β-lapachone 30 minutes before treating with cisplatin, p<0.05
[8] = system: C57BL/6 mice (age-related hearing loss model); test: Auditory brainstem response (ABR) threshold in animal model with age-related presbycusis; assay type: in vivo; conditions: for ABR threshold: feed containing 0.06% β-lapachone; for recovery of ABR thresholds in comparison with the control group: p<0.05
Protocol: C57BL/6 mice which are well known as a age-related hearing loss model were used for this experiment. 12-month-old C57BL/6 mice were directly purchased from Central Lab. Animal Inc. (Seoul, Korea), and bred up to 24 months of age with measuring hearing loss every 3 months. All mice used in this experiment were bred in an axenic (germfree) animal facility maintaining constant temperature (22 to 26° C.) and humidity (55 to 60%).
All experiments were conducted for groups divided into a control group freely providing normal feed, caloric restriction (CR) group limiting dietary to 70%, and βL group providing feed containing 0.06% β-lapachone (compound 1).
In order to evaluate auditory brainstem response, all lab animals were intramuscularly injected with a mixture of xylazine (5 mg/kg) and ketamine for anesthesia and the variation of auditory brainstem response threshold was measured using a TDT system (Tucker-Davis Technologies, FL, USA) in a soundproof room.
An insertable ear tip (3.5 mm, Nicolet Biomedical, Inc.) was placed in the external auditory meatus, electrodes were placed at scalp vertex (active electrode), the mastoid region of the ear of interest (reference electrode) and the mastoid region of the opposite ear (ground electrode), and the threshold of ABS was measured by starting with 90 dB HL intensity and then sequentially decreasing the intensity by 10 dB at 4, 8, 16 and 32 kHz.
There was no arousal response and death due to respiratory depression during the ABR test. The comparison of the ABR thresholds between groups was conducted by one-way analysis of variance (ANOVA) and P value of 0.05 or less was regarded as being significant.

[9] = system: outer and inner hair cells of the inner ear; test: TUNEL identification of hair cell damage in inner ear; assay type: in vivo; conditions: 24-month-old mice, βL group vs control group
Source text: In order to identify damage of hair cells, the inner ears of the lab animals were enucleated and subject to terminal deoxynucleotidyl transferase-mediated dUTP nick end-labeling (TUNEL) from the top of cochlea to middle circular part thereof, followed by analyzing TUNEL positive cells using a fluorescence microscope.

HMGB1 [10] = test: HMGB1 expression in inner ear by tissue staining; assay type: in vivo; conditions: 21-month-old mice, compared to control and CR groups
Protocol: In order to identify an effect of β-lapachone against the expression of HMGB1 which is known to be important for the damage and shape variation of mitochondria, a tissue staining was conducted.

mitochondria = test: Shape variations of mitochondria by transmission electron microscope (TEM); assay type: in vivo; conditions: 24-month-old mice, compared to 2-month-old lab animals
Source text: Also, in order to identify inhibition of age-related mitochondria damage by β-lapachone, the shape variations of mitochondria were detected for three groups of 24-month-old lab animals using a transmission electron microscope (TEM).

[11] = HEI-OC1 cells treated with cisplatin

N.N.[Cl][Pt][Cl] [cisplatin, reference compound]
release amounts of HSP60 (HSP60 [1]; mice treated with cisplatin, p<0.05): significantly increased release amounts of HSP60 | shape and arrangement of the outer and inner hair cells ([2]; treated with cisplatin): shape and arrangement of the outer and inner hair cells were changed | location of HSP60 (HSP60 [3]; cells treated with cisplatin): HSP60 was almost expressed in cytoplasm | extracellular release of HMGB1 (HMGB1 [4]; [11]): extracellular release of excessive amounts of HMGB1 | expression of inflammation mediators (TNF-α, IL-6, HSP60, TLR2, TLR4) [5, 11]: increased expression of inflammation-inducing cytokines such as TNF-α, IL-6 and HSP60 and inflammation mediators such as TLR2 and TLR4 | release amounts of HSP60 (HSP60 [6]; HEI-OC1 cells treated with cisplatin, p<0.05): significantly increased release amounts of HSP60

CC1(C)CCC2=C(O1)c1ccccc1C(=O)C2=O [β-lapachone]
recovery of ABR thresholds as compared to the CDDP group (6-week-old C57BL/6 mice): statistically significant recovery at all regions | protection from apoptosis by cisplatin (cell viability, MTT) [7]: protected the apoptosis by cisplatin in a concentration-dependent manner | release amounts of HSP60 (HSP60 [1]; mice treated with both β-lapachone and cisplatin): decreased release amounts of HSP60 in a β-lapachone concentration-dependent manner | ABR threshold ([8]; 15-month-old mice, 4 kHz): 63.33±11.55 dB SPL | ABR threshold ([8]; 15-month-old mice, 8 kHz): 33.33±15.28 dB SPL | ABR threshold ([8]; 15-month-old mice, 16 kHz): 46.67±5.77 dB SPL | ABR threshold ([8]; 15-month-old mice, 32 kHz): 53.33±5.77 dB SPL | ABR threshold ([8]; 18-month-old mice, 4 kHz): 80±0 dB SPL | ABR threshold ([8]; 18-month-old mice, 8 kHz): 46.67±11.55 dB SPL | ABR threshold ([8]; 18-month-old mice, 16 kHz): 56.67±11.55 dB SPL | ABR threshold ([8]; 18-month-old mice, 32 kHz): 66.67±11.55 dB SPL | recovery of ABR thresholds in comparison with the control group ([8]; 21-month-old mice, 4, 8, 16 and 32 kHz): statistically significant recovery at regions except for 16 kHz | ABR threshold ([8]; 21-month-old mice, 4 kHz): 56.67±5.77 dB SPL | ABR threshold ([8]; 21-month-old mice, 8 kHz): 46.67±5.77 dB SPL | ABR threshold ([8]; 21-month-old mice, 16 kHz): 53.33±15.28 dB SPL | ABR threshold ([8]; 21-month-old mice, 32 kHz): 46.67±5.77 dB SPL | recovery of ABR thresholds in comparison with the control group ([8]; 24-month-old mice, 4, 8, 16 and 32 kHz): statistically significant recovery at all regions | recovery of ABR threshold in comparison with the control group ([8]; 24-month-old mice, at 8 to 32 kHz except for 4 kHz): no less than 30 dB SPL | ABR threshold ([8]; 24-month-old mice, 4 kHz): 73.33±5.77 dB SPL | ABR threshold ([8]; 24-month-old mice, 8 kHz): 43.33±5.77 dB SPL | ABR threshold ([8]; 24-month-old mice, 16 kHz): 53.33±5.77 dB SPL | ABR threshold ([8]; 24-month-old mice, 32 kHz): 53.33±11.55 dB SPL | age-related apoptosis (TUNEL positive cells) in inner ear [9]: significantly inhibited the age-related apoptosis in the whole inner ear | shape and arrangement of the auditory hair cells ([2]; treated with both β-lapachone and cisplatin): maintained the shape and arrangement of the auditory hair cells similar to the control group | location of HSP60 (HSP60 [3]; cells treated with both β-lapachone and cisplatin): HSP60 was expressed in only mitochondria like the normal cells | expression of HMGB1 in the inner ear (HMGB1 [10]): significantly decreased expression of HMGB1 | extracellular release amounts of HMGB1 (HMGB1 [4]; HEI-OC1 cells treated with cisplatin and β-lapachone, p<0.05): the release amounts decreased in a β-lapachone concentration-dependent manner | expression of inflammation mediators by cisplatin (TNF-α, IL-6, HSP60, TLR2, TLR4) ([5]; HEI-OC1 cells, β-lapachone 30 minutes before cisplatin): inhibited by β-lapachone in a concentration-dependent manner | number and shape of mitochondria (TEM) (mitochondria): number and shape of mitochondria similar to the 2-month-old lab animals | release amounts of HSP60 (HSP60 [6]; HEI-OC1 cells treated with both β-lapachone and cisplatin): decreased release amounts of HSP60 in a β-lapachone concentration-dependent manner
